This note sets out measurements from PubChem BioAssay (NCI).

Common to all, as to experiment: inhibition of tumour cell growth, NCI panel, 48 h
Assay [1] has as its system ACHN renal.
For assay [2], the system named is OVCAR-8 ovarian.
Assay [3] relates to SNB-75 CNS.
Assay [4] deals with KM12 colon.
In assay [5] the test system is K-562 leukemia.
Assay [6] has as its system UACC-257 melanoma.
Assay [7] concerns LOX IMVI melanoma.
In assay [8] the test system is UO-31 renal.
The subject of assay [9] is SF-539 CNS.
Assay [10] relates to SF-295 CNS.

“And” between values parts separate entries of the source, which are not always exact repeats. Equal values may be shown once.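 Method: 48-hour compound exposure of cells in 96-well plates, five concentrations, linear interpolation of endpoints. The concentration for 50% growth inhibition is given as GI50. At the TGI there is no net growth.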

Take `COC(=O)C(/C(=N\NC(N)=S)C(=O)Nc1ccccc1[N+](=O)[O-])c1cnc2ccccc2n1` (stereo not given): the TGI in assay [1], in assay [2], in assay [3], in assay [4], in assay [5] and in assay [6] was more than 100 µM throughout. Also, the TGI in assay [7], in [8], in assay [9] and in assay [10] was more than 100 µM in each case.
Take `Cc1ccc(OCC2OC(n3cnc4c(Br)nc(Br)nc43)CC2Oc2ccc(C)cc2)cc1` (stereo not given): the GI50 in assay [1] is 5.29 µM; in assay [2] it was 18.2 µM; in assay [3] it was 8.32 µM; in assay [4] it was 2.46 µM; in assay [5] it was 1.94 µM; in assay [6] it was 10.3 µM. Besides, the GI50 in assay [7] is 1.42 µM; in [8] it was 11.9 µM; in assay [9] it was 0.466 µM; in [10] it was 2.22 µM. Moreover, the TGI in assay [1] is 14.8 µM and 4.93 µM; in [2], 42.7 µM and 14.3 µM; in assay [3], 18.3 µM and 9.29 µM; in [4] it was 8.76 µM and 9.56 µM; in assay [5] it was 3.92 µM and > 23.8 µM; in [6], 20.4 µM and 21.3 µM. The TGI in assay [7] is 2.47 µM and 3.67 µM; in assay [8], 22.3 µM and 28.4 µM; in assay [9], 10.2 µM and 15.6 µM; in assay [10] it was 5.28 µM and 25.9 µM.
As for `CCOCc1cc(=O)c2c(OC)cc3c(c2o1)CCC(C)(C)O3`, the TGI in assay [1], in assay [2], in assay [3], in [4], in [5] and in assay [6] was more than 100 µM in each case. The TGI in assay [7], in assay [8], in assay [9] and in [10] was more than 100 µM throughout.
Regarding `O=C1C2C3C=CC(C2C(=O)N1CN1CCSCC1)C1C2C(=O)N(CN4CCSCC4)C(=O)C2C31` (stereo not given), the TGI in assay [1] is more than 100 µM; in assay [2], more than 100 µM; in assay [3], more than 93 µM; in assay [4], more than 100 µM; in assay [5], more than 100 µM; in [6] it was more than 100 µM. Besides, the TGI in [7] is more than 80.5 µM; in assay [8], more than 100 µM; in assay [9], more than 100 µM; in assay [10] it was more than 100 µM. Besides, in [3], the GI50 was 38.6 µM.
For the compound `Cc1ccc2nc(NC(=O)/C(=N\NC(=S)NN)C3C(=O)NC(=S)NC3=O)sc2c1`, the TGI in assay [1], in assay [2], in assay [3], in assay [4], in [5] and in [6] was more than 100 µM each time. The TGI in assay [7], in assay [8], in assay [9] and in [10] was more than 100 µM in each case.
Regarding `CN(C)c1ccc(N=C2C=CC(=O)c3ccccc32)cc1`, the GI50 in assay [1] is 4.1 µM; in assay [2], 3.71 µM; in assay [3], 1.8 µM; in assay [4] it was 2.69 µM; in assay [5], 2 µM; in assay [6] it was 2.21 µM. Moreover, the GI50 in assay [7] was 1.78 µM; in [8], 2.28 µM; in assay [9], 3.11 µM; in assay [10] it was 1.68 µM. The TGI was determined as 18.4 µM in [1]; 18.2 µM in [2]; 4.86 µM in assay [3]; 10.2 µM in assay [4]; 4.75 µM in assay [5]; 5.45 µM in [6]. Besides, the TGI stood at 4.13 µM in assay [7], 16.6 µM in [8], 11.4 µM in assay [9] and 3.66 µM in [10].
Regarding `CN(C)c1ccc2nc(CC(O)(C(F)(F)F)C(F)(F)F)ccc2c1`, the TGI in assay [1], in assay [2], in assay [3], in assay [4], in [5] and in assay [6] was more than 10 µM in each case. Moreover, the TGI in assay [7], in assay [8], in assay [9] and in [10] was more than 10 µM in each case.
As to `Cn1cnc([N+](=O)[O-])c1Sc1nccc(=O)[nH]1`, the TGI in [1], in assay [2], in [3], in assay [4], in assay [5] and in assay [6] was more than 100 µM in each case. Besides, the TGI in assay [7], in [8], in assay [9] and in [10] was more than 100 µM in each case.
As for `C/C(=N/N=C(N)N)c1ccc(NC(=O)Nc2ccc(/C(C)=N/N=C(N)N)cc2)cc1`, the GI50 is 20.7 µM in [1]; 21.8 µM in assay [2]; 17.6 µM in assay [3]; 9.78 µM in assay [4]; 5.84 µM in [5]; 31.1 µM in assay [6]. The GI50 was 21.5 µM in assay [7], 40.8 µM in assay [8], 17.9 µM in assay [9] and 12.4 µM in assay [10]. The TGI was more than 55.4 µM in assay [1]; more than 78.8 µM in [2]; 38.1 µM in assay [3]; more than 77.7 µM in assay [4]; more than 59.9 µM in assay [5]; more than 89.6 µM in assay [6]. Besides, the TGI is more than 70.1 µM in assay [7], more than 100 µM in [8], 36.1 µM in assay [9] and 28.4 µM in [10].
For the compound `CCOC(=O)C1(Br)S(=O)(=O)OCCOS1(=O)=O`, the TGI in assay [1], in [2], in [3], in [5], in assay [6] and in [7] was more than 100 µM in each case. Besides, the TGI in [8], in assay [9] and in [10] was more than 100 µM throughout.
With `COc1cccc2c1C(=O)c1c(O)c3c(c(O)c1C2=O)CC(O)(C(=O)CO)CC3OC1CC(N)C(O)C(C)O1` (stereo not given), the GI50 was 20.2 µg/mL and 12.2 µg/mL in assay [1]; 19.5 µg/mL and 45.7 µg/mL in assay [2]; 9.12 µg/mL and 51.1 µg/mL in assay [3]; 16.9 µg/mL and 54.4 µg/mL in assay [4]; 9.4 µg/mL and 25.2 µg/mL in [5]; 29.9 µg/mL and 25.1 µg/mL in assay [6]. The GI50 was 3.89 µg/mL and 19.5 µg/mL in assay [7]; 59 µg/mL and > 150 µg/mL in [8]; 38.3 µg/mL and 18.8 µg/mL in [9]; 18.6 µg/mL and 14.3 µg/mL in [10]. Further, the TGI was 75 µg/mL and > 150 µg/mL in assay [1]; 75 µg/mL and > 150 µg/mL in assay [2]; 55 µg/mL and > 150 µg/mL in [3]; 75 µg/mL and > 150 µg/mL in assay [4]; 75 µg/mL and > 150 µg/mL in assay [5]; 75 µg/mL and 113 µg/mL in assay [6]. The TGI is 75 µg/mL and > 150 µg/mL in assay [7]; 75 µg/mL and > 150 µg/mL in assay [8]; 75 µg/mL and 94.8 µg/mL in assay [9]; 75 µg/mL and 116 µg/mL in [10].
